Series [1] relates to HIV-1 RTs bearing K103N, Y181C, and Y188L (RNase H). In words: RNase H activity of HIV-1 RTs bearing K103N, Y181C and Y188L substitutions. Particulars: all cases. The series is classed as biochemical. How it is done: K103N, Y181C, and Y188L mutations were introduced into the p6HRT-prot vector using the QuikChange protocol (Agilent Technologies, Santa Clara, CA, USA). Enzymes were expressed and purified as the wt-HIV-1 RT.
HIV RT-associated RNase H activity was measured as described ([Corona et al., 2016b]) in a 100-µl reaction volume containing 50 mM of Tris-HCl buffer, pH 7.8, 6 mM of MgCl2, 1 mM of dithiothreitol (DTT), 80 mM of KCl, 0.25 µM of hybrid RNA/DNA 5′-[…]-Fluorescin-3′ (high-performance liquid chromatography (HPLC), dry, QC: Mass Check) (available from Metabion) 5′-Dabcyl-[…]-3′ (HPLC, dry, QC: Mass Check), increasing concentrations of inhibitors, whose dilution were made in water, and different amounts of enzymes according to a linear range of the dose–response curve. The reaction mixture was incubated for 1 h at 37°C and stopped by the addition of EDTA, and products were measured with a multilabel counter plate reader Victor 3 equipped with filters for 490/528 nm.

The target of series [2] is T1, HIV-1 IN (LEDGF/p75-dependent) (Human immunodeficiency virus type 1 group M subtype B, UniProt P12497).
T1 construct: Preparation of recombinant full-length IN and LEDGF proteins; made in house; host or cells: E. coli BL21(DE3)
In words: biochemical. The series is classed as biochemical. Conditions: strand-transfer activity in the presence of LEDGF/p75; for IC50: read-out: IC50 IN LEDGF-dependent integration. How it is done:
(§1) Proteins were expressed in E. coli BL21(DE3). Briefly, His-IN was purified by loading the precipitate of cell lysate onto a Ni-Sepharose column and eluting with a […] imidazole gradient (0–500 mM) in a HEPES buffer (50 mM, pH 7.5) containing NaCl (1 M), CHAPS (7.5 mM), and β-mercaptoethanol (2 mM). FLAG-IN was purified by loading the precipitate of cell lysate onto a phenyl-sepharose and ammonium sulfate gradient (0–800 mM) in a HEPES (pH 7.5, 50 mM) buffer containing NaCl (200 mM), CHAPS (7.5 mM), and β-mercaptoethanol (2 mM). Peak fractions were pooled, loaded onto a heparin column, and eluted with an increasing NaCl gradient (200 mM to 1 M) in a HEPES (pH 7.5, 50 mM) buffer containing CHAPS (7.5 mm) and β-mercaptoethanol (2 mM). Fractions containing integrase were pooled and stored in glycerol (10%) at −80°C.
Briefly, IN (50 nM) was preincubated with increasing concentrations of compounds for 1 h at room temperature in a reaction buffer containing HEPES (20 mM, pH 7.5), DTT (1 mM), glycerol (1%), MgCl2 (20 mM), Brij-35 (0.05%), and bovine serum albumin (BSA) (0.1 mg/ml).

The target in series [3] is T2, HIV-1 IN-IN subunit exchange (Human immunodeficiency virus type 1 group M subtype B, UniProt P12497).
T2 construct: Preparation of recombinant full-length IN and LEDGF proteins; made in house; host or cells: E. coli BL21(DE3)
In words: HTRF-based IN subunit exchange assay. The series is classed as binding. The protocol: as §1
His and FLAG-tagged INs were mixed in Tris (pH 7.4, 25 mm) buffer containing NaCl (150 mm), MgCl2 (2 mM), Nonidet P-40 (0.1%), and BSA (1 mg/ml). Test compounds were then added to the mixture, and incubation was carried out for 2.5 h at room temperature.
On the technique in general: TR-FRET usually uses a lanthanide donor and a delayed reading to cut background.

Another series relates to HIV-1. In words: HIV-1 replication inhibition in MT4 cells. The series is classed as cell-based. Particulars: three independent experiments, average ± standard deviation, read-out: HIV-1 EC50. How it is done:
(§2) HIV-1 replication was carried out in MT4 cells as previously reported ([Corona et al., 2016a]) using a molecular clone derived from the pNL4-3 ([Thierry et al., 2015]). A total of 120 ng of p24^gag antigen per 10^6 cells, corresponding to a multiplicity of infection (m.o.i.) of 0.3, was used for infection. […] Flow cytometry analysis was performed on a FACSCalibur flow cytometer (BD Biosciences, San Jose, CA, USA), and the results were analyzed using the […] software.

A short description of series [4]: Viability of infected MT4 cells (cytotoxicity). In kind it is cell-based. Conditions: human, MT4 cells infected with HIV-1; infected MT4 cells viability; three independent experiments, average ± standard deviation. How it is done:
as §2

A further series has as its system MT4 cells. In words: Viability of infected MT4 cells (cytotoxicity). In kind it is cell-based. Particulars: no toxicity up to the highest concentration tested. How it is done:
as §2

Setting [5] is: Human immunodeficiency virus 1, MT4, viral replication in MT4 cells.

Read-outs that look alike come from different tables or passages of the source.

The term EC50 denotes the concentration giving half of the maximal effect. As usually defined, the CC50 is the concentration giving 50% cytotoxicity.

For the compound `Cc1ccc(-c2csc(N/N=C3\C(=O)Nc4ccc([N+](=O)[O-])cc43)n2)cc1` [10a], the “increase in IC50 values vs wt RT, RNase H function” value in series [1] was “less than threefold”. Further, the figures for the IC50 in series [2] and in series [3] were 32.3 ± 2.7 µM and 11.5 ± 1.5 µM, respectively. Also, the EC50 is below 20 µM in the series with HIV-1 (setting [5]) and 15.8 ± 1.8 µM in the series on HIV-1 (viral replication in MT4 cells). For the same compound, the CC50 in series [4] was above 100 µM. Also, in the series with MT4 cells, the “toxicity against MT4 cells” value is above 100 µM.
`O=C1Nc2ccc(Cl)cc2/C1=N/Nc1nc(-c2ccc(Cl)c(Cl)c2)cs1` [9b]: the “increase in IC50 values vs wt RT, RNase H function” value in series [1] is listed as “less than threefold”. The “IC50 IN LEDGF-dependent integration” value in series [2] was “not able to inhibit IN”. Besides, the IC50 in series [2] and in series [3] was above 100 µM throughout. Besides, the concentration giving a half-maximal response (EC50) in the series on HIV-1 (setting [5]) was below 20 µM; with HIV-1 (viral replication in MT4 cells) it was 13.2 ± 3.7 µM. In series [4], this compound came in with a CC50 above 100 µM. Also, the “toxicity against MT4 cells” value with MT4 cells was above 100 µM.

(Values after article PMC10328743, “5-Nitro-3-(2-(4-phenylthiazol-2-yl)hydrazineylidene)indolin-2-one derivatives inhibit HIV-1 replication by a multitarget mechanism of action” (Frontiers in Cellular and Infection Microbiology, 2023).)
